Read-outs that look alike come from different tables or passages of the source.
Key:
[1] = type: in vivo, human
[2] = molecular target: T1, breast cancer resistance protein (BCRP) (Homo sapiens, UniProt Q9UNQ0); experiment: In vitro efflux transporter study, BCRP; type: in vitro ADME
T1 sequence (Q9UNQ0 1-655): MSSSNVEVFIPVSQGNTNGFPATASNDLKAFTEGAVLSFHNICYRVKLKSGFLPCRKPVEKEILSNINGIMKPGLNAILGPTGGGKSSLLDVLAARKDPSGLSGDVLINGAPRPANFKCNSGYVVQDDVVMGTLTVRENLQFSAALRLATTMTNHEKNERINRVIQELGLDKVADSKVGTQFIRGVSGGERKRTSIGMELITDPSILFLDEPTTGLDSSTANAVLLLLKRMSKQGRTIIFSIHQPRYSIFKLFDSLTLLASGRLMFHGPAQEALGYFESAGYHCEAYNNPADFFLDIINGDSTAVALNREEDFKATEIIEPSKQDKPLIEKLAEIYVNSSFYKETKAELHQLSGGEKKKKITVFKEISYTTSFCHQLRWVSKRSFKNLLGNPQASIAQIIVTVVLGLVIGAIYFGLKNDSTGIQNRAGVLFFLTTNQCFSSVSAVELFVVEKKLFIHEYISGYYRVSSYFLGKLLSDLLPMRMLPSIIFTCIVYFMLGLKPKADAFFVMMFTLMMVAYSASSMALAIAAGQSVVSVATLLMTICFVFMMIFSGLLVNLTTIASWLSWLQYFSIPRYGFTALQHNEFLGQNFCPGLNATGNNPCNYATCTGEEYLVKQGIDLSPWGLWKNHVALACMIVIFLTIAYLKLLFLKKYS

[3] = molecular target: P‐glycoprotein (Pgp) (Homo sapiens, UniProt P08183); experiment: In vitro efflux transporter study, P-glycoprotein; type: in vitro ADME
Sequence of P‐glycoprotein (Pgp) (P08183 whole entry): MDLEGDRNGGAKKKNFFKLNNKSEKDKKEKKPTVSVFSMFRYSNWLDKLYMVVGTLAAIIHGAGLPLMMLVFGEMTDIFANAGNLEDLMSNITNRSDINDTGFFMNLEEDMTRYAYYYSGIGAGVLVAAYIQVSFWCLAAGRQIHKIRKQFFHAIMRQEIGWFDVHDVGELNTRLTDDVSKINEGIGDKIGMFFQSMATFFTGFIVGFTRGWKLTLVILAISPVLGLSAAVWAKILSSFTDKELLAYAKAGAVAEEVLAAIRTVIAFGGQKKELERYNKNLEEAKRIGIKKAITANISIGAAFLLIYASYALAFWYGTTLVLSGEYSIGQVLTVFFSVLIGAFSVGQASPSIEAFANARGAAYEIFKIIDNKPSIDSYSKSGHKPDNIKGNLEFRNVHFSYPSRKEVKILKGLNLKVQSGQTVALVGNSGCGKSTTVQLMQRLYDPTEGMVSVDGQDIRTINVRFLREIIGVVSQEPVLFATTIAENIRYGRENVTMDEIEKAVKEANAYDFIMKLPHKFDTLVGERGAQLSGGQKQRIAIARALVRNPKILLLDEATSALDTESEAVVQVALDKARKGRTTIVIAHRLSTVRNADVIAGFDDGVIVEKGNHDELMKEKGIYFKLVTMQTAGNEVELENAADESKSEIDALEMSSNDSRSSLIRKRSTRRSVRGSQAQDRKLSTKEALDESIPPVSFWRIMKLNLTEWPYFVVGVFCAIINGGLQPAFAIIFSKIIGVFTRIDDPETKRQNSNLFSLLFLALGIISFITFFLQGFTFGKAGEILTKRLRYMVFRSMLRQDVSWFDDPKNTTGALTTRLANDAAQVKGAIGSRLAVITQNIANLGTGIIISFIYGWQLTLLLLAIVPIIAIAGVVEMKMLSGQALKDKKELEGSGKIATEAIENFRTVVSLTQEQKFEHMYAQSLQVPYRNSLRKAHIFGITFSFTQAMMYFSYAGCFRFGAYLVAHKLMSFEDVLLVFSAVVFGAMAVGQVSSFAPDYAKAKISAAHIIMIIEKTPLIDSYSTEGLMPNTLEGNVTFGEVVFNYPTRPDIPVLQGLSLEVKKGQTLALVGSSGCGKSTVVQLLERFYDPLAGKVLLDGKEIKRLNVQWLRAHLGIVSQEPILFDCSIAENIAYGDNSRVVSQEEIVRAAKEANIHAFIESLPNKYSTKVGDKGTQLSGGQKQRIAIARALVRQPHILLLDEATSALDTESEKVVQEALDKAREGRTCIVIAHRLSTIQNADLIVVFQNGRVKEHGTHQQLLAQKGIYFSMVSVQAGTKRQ

[4] = Phase I DDI study: safety and tolerability; type: in vivo, human; settings: for overall safety and tolerability: healthy participants, clesacostat 15 mg b.i.d., ervogastat 300 mg b.i.d.
[5] = tested on: CYP3A; experiment: In vitro CYP3A time-dependent inhibition; type: in vitro ADME; settings: 0–300 μM
[6] = tested on: CYP3A; experiment: In vitro CYP3A induction in human hepatocytes; type: in vitro ADME
[7] = type: in vivo, human; settings: for T max / Tmax: median (range); for PTR (peak-to-trough ratio): geometric mean; for CL/F: geometric mean (%CV); for Tmax: T max
[8] = tested on: CYP3A; settings: healthy adults, total daily dose ≤720 mg; cited from earlier work
[9] = clesacostat 15 mg b.i.d. co-administered with ervogastat 300 mg b.i.d.
[10] = same participant, Day 9 (7 days clesacostat alone then 2 days with ervogastat)
[11] = ervogastat 300 mg + clesacostat 15 mg b.i.d., Day 14
[12] = ervogastat 300 mg b.i.d. alone, Day 7

With COc1cc(C(=O)N2CCC3(CC2)CC(=O)c2c(cnn2C(C)C)C3)cc(-c2ccc(C(=O)O)cc2)n1 [clesacostat] the “decrease in mean systemic exposure based on AUCtau” value [1, 9] was 19%, the “decrease in mean systemic exposure based on C max” value [1, 9] was 12% and the AUC ([1]; human, plasma, oral, 15 mg) was 12100 ng·h/mL. For the same compound, the Cmax ([1]; human, plasma, oral, 15 mg) was 1340 ng/mL, the Tmax ([1]; human, plasma, oral, 15 mg) was 4 h and the “substrate for BCRP” value [2] was “substrates”. For the same compound, the “substrate for Pgp” value [3] was “substrates”, the “overall safety and tolerability” value [4] was “generally safe and well tolerated” and the ALT elevation [4, 10] was 3.8 × ULN. The AST elevation [4, 10] was 2.9 × ULN, the GGT elevation [4, 10] was 3.3 × ULN and the “composite slope based on observed inactivation rate constant (k obs)” value ([5]; midazolam as probe) was 0.452 M⁻¹ s⁻¹. For the same compound, the “composite slope based on observed inactivation rate constant (k obs)” value ([5]; testosterone as probe) was 0.398 M⁻¹ s⁻¹.

In the case of CCOc1cccnc1Oc1cncc(-c2ncc(C(=O)N[C@H]3CCOC3)cn2)c1 [ervogastat], the “inhibition of BCRP” value [2] is reported as “may inhibit”, the “substrate for BCRP” value [2] is reported as “substrates” and the “inhibition of Pgp” value [3] is reported as “may inhibit”. The “substrate for Pgp” value [3] was “substrates”, the “overall safety and tolerability” value [4] was “generally safe and well tolerated” and the EC50 [6] was 21.4 to 37.2 µM. The T max ([7]; ervogastat 300 mg + clesacostat 15 mg b.i.d., Day 14, n=9) was 2.00 (1.00–2.00) h, the PTR (peak-to-trough ratio) [7, 11] was 150 and the CL/F [7, 11] was 31.76 (34) L/h. The T max ([7]; ervogastat 300 mg b.i.d. alone, Day 7, n=9) was 2.00 (1.00–4.00) h, the PTR (peak-to-trough ratio) [7, 12] was 94.3 and the CL/F [7, 12] was 34.41 (19) L/h. It also gave an AUC ([7]; human, plasma, oral, 300 mg) of 8720 ng·h/mL, a Cmax ([7]; human, plasma, oral, 300 mg) of 2390 ng/mL and a Tmax ([7]; human, plasma, oral, 300 mg, ervogastat 300 mg b.i.d. alone, Day 7, n=9) of ~2 h. For the same compound, the Tmax ([7]; human, plasma, oral, ervogastat 300 mg + clesacostat 15 mg b.i.d., Day 14, n=9) was ~2 h and the “change in 4β-hydroxycholesterol” value [8] was “no changes”.

— publication PMC10870243 (Clinical and Translational Science, 2024)
